In PubChem BioAssay (NCI):
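1) Cells in 96-well plates. 2) Compound, 48 h, 5 concentrations. 3) Linear interpolation between surrounding doses. 4) Unreached endpoint = highest concentration. Definition used: TGI = concentration required for complete inhibition of growth.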

What was measured:
Assay in all cases: growth of human tumour cells (NCI), 48 h
UACC-62 melanoma = test system: UACC-62 melanoma
TK-10 renal = test system: TK-10 renal
HOP-62 NSCLC = test system: HOP-62 NSCLC
LOX IMVI melanoma = test system: LOX IMVI melanoma
M14 melanoma = test system: M14 melanoma
SR leukemia = test system: SR leukemia
HL-60(TB) leukemia = test system: HL-60(TB) leukemia

| SMILES | TGI (UACC-62 melanoma) [µM] | TGI (TK-10 renal) [µM] | TGI (HOP-62 NSCLC) [µM] | TGI (LOX IMVI melanoma) [µM] | TGI (M14 melanoma) [µM] | TGI (SR leukemia) [µM] | TGI (HL-60(TB) leukemia) [µM] |
| --- | --- | --- | --- | --- | --- | --- | --- |
| Cc1c(C(=O)CC(=O)C(=O)Nc2cc(Cl)ccc2Cl)[n+](=O)c2ccccc2n1[O-] | 40.2 | > 100 | > 100 | 93.5 | 64.4 | 63.6 |  |
| S=P(N1CCCC1)(N1CC1)N1CC1 | > 100 | > 100 | > 100 | > 100 | > 100 | > 100 | > 100 |
| Cc1c(Cl)cccc1NC(=O)/C(Cl)=C(\Cl)C(=O)O | 26.6 | 35.2 | 78.5 | 32.7 | 30.9 | 39.6 |  |
| COc1cc(C2c3cc4c(cc3[C@@H](OCCN(C)C)C3COC(=O)[C@H]23)OCO4)cc(OC)c1O (stereo partly specified) | 1.38 | 5.49 | 0.241 | 1.27 | 3.22 | 0.0831 | > 100 |
| CCOC(=O)c1c(-c2ccccc2)c(C(OC(c2ccccc2)c2c(-c3ccccc3)c(C(=O)OCC)n3ccccc23)c2ccccc2)c2ccccn12 (stereo unspecified) | > 100 | > 100 | > 100 | > 100 | > 100 | > 100 | > 100 |
| COc1cc(C2c3cc4c(cc3[C@@H](N(C)C)[C@H]3COC(=O)C23)OCO4)cc(OC)c1O (stereo partly specified) | > 100 | > 100 | > 100 | > 100 | > 100 | > 100 | > 100 |
| COC(=O)c1ccc(C(=O)OC)c2nc3cc(C)ccc3nc12 | > 100 | > 100 | > 100 | > 100 | > 100 |  | > 100 |
| CS(=O)(=O)NNS(=O)(=O)c1ccc(Cl)cc1 | > 100 | > 100 | > 100 | > 100 | > 100 | > 100 | > 100 |
| Nc1ccc(C(=O)CC2(O)C(=O)Nc3c(Cl)cc(Cl)cc32)cc1 (stereo unspecified) |  | > 100 | > 100 | > 100 | > 100 |  | 78.5 |
| COc1ccc2ccccc2c1CN1CCOCCOCCN(Cc2c(OC)ccc3ccccc23)CCOCCOCC1 | > 100 | > 100 | > 100 | > 100 | 32.5 | > 100 | 53.4 |
| CC1(O)CCC2(C)C(=O)C1(C)CCC21OCCO1 (stereo unspecified) |  | > 100 |  |  | > 100 | > 100 | > 100 |
| CC1=NOC(=O)C1N=Nc1ccc(Br)c(C)c1 (stereo unspecified) | 37.7 | 33.2 | 48.4 |  | 36.1 |  | 23.8 |
| COc1ccccc1NC(=O)C1=C(C)NC(C)=C(C(=O)Nc2ccccc2OC)C1c1ccc(N(C)C)cc1 |  | > 100 | 57.2 | 42.2 | 69.7 |  | 40.7 |
| COC(=O)C1Cc2c([nH]c3ccccc23)C(c2ccccc2O)N1Cc1ccccc1 (stereo unspecified) | 33.1 | > 46.4 | > 63.5 | > 46.4 | > 46.4 | > 31.6 | > 46.4 |
| COc1c(Sc2ccccc2)cc(Sc2ccccc2)c2cccnc12 | 63.2 | 81.3 | > 100 | 42.7 | > 100 |  |  |
| NC(=O)c1csc(C2CCC(CO)O2)n1 (stereo unspecified) | > 100 | > 100 | > 100 | > 100 | > 100 |  | > 100 |
| Clc1ccc2c(c1)[nH]c1c2nc2sccn21 | > 100 | > 100 | > 100 | > 100 | > 100 | > 100 | > 100 |
| O=C(CSc1nc(-c2ccccc2)c(-c2ccccc2)[nH]1)NNC(=S)Nc1ccccc1 | > 100 | > 100 | > 100 | > 100 | > 100 | > 100 | > 100 |
| N#Cc1c(C[n+]2ccccc2)c2ccccc2oc1=O | > 100 |  | > 100 | > 100 | > 100 | > 100 |  |
| CN1C(=O)C2C=CC1C1CCC2N(C)C1=O (stereo unspecified) | > 100 | > 100 |  | > 100 | > 100 |  | > 100 |
| COc1ccc(N2C(=O)C3c4[nH]c5ccccc5c4C4CCCCCCC4C3C2=O)cc1 (stereo unspecified) | 39.2 | 40.4 | 26 | 20.8 | 37.4 | > 21.3 | 74 |
| O=C(O)Cc1ccccc1CCc1ccccc1Cl |  | > 100 |  | > 100 | > 100 | > 100 | > 100 |
| CCOC(=O)C1=C(Nc2ccc(Cl)c(Cl)c2)OC/C1=N\NC(=O)Cc1ccccc1 | > 100 | > 100 | > 100 | > 100 | > 100 |  | > 100 |
| Clc1ccc(-c2c(C3=NCCN3)nnn2-c2ccccc2)cc1 | > 100 | > 100 | > 100 | > 100 | > 100 | > 100 | > 100 |
